# Patent US9458203B2, “Integrin-blocking polypeptides and uses thereof” (priority 2011, dated 2016)
# Like-named read-outs stand apart in the source and are kept apart here. Ends that are not written are not given here.
# Key:
# Conditions in all cases: mouse, in vivo
# human renal cancer A498 = assay type: in vivo, nude mice
# Experimental: (§2) Taking a certain amount of vigorously growing tumor tissue, grinding the tumor tissue under sterile conditions and preparing cell suspension at the concentration of 1×10^7 cells/ml; then hypodermicaly inoculating 0.1 ml of the cell suspension into the right axillary region of nude mice. Keeping measuring the diameter of the transplanted tumor with a vernier caliper, and randomly dividing the mice into groups when the volume of the tumor reached 100-200 mm^3. […] Measuring the tumor diameter once every other day and recording the body weight of mice simultaneously. Intravenously injecting polypeptides to mice from test groups while administering equal quantity of physiological saline to mice from the negative control group. The total medication period was 14 days. Avastin was adopted to set up a positive control group; it was administered through the tail vein once every three days while all other drugs were administered through the tail vein once a day. Leaving mice for a one-week rest after 14 days' medication, then (21 days after medication) killing the mice, surgically dissecting the tumors and measuring the weight of tumors. The tumor volume (TV) was calculated in accordance with the following formula: TV=½×a×b^2
# [1] = tested on: human cervical cancer HeLa; assay type: in vivo, nude mice
# Experimental: as §2
# [2] = tested on: human gallbladder cancer GBC-SD
# Experimental: (§3) Taking a certain amount of vigorously growing tumor tissue, grinding the tumor tissue under sterile conditions and preparing cell suspension at the concentration of 1×10^7 cells/ml; then hypodermicaly inoculating 0.1 ml of the cell suspension into the right axillary region of nude mice. Keeping measuring the diameter of the transplanted tumor with a vernier caliper, and randomly dividing the mice into groups when the volume of the tumor reached 100-200 mm^3. Observing the dynamic effect of integrin-blocking polypeptides on inhibiting the growth of the tumor by means of documenting the change of tumor diameters. Measuring the tumor diameter once every other day and recording the body weight of mice simultaneously. Intravenously injecting polypeptides to mice from test groups while administering equal quantity of physiological saline to mice from the negative control group. The total medication period was 14 days. Avastin was adopted to set up a positive control group; it was administered through the tail vein once every three days while all other drugs were administered through the tail vein once a day. Leaving mice for a one-week rest after 14 days' medication, then (21 days after medication) killing the mice, surgically dissecting the tumors and measuring the weight of tumors. The tumor volume (TV) was calculated in accordance with the following formula: TV=½×a×b^2
# Avastin used in the positive control group was administered once every 2 days through tail vein injection, while drugs of all other groups were administered on daily basis through tail vein injection.
# [3] = tested on: human rectal cancer Colo 320
# melanoma B16F10 = test: transplanted melanoma B16F10 in C57BL/6 black mice
# Experimental: Hypodermically injecting polypeptides and other drugs into the left axillary region of mice from the experimental groups respectively while administering only equal quantity of physiological saline to the mice from the negative control group. The total medication period was 14 days, during which cyclophosphamide was administered once every other day, taxol once every three days, low-dose polypeptide twice a day and all other drugs once a day.
# [4] = tested on: human thyroid cancer SW-579; assay type: in vivo, nude mice
# Experimental: as §2
# [5] = tested on: human laryngeal cancer Hep-2; test: heterotransplanted human laryngeal cancer Hep-2 in nude mice; assay type: in vivo
# Source text: (§1) The total medication period was 14 days.
# [6] = tested on: human breast cancer MDA-MB-231
# Experimental: as §3
# wherein a, b refer to the length and width of the tumor respectively.
# The relative tumor volume (RTV) can be calculated in accordance with the results of measurement, using the formula: RTV=Vt/V0, wherein V0 refers to the initial tumor volume measured on the date starting medication (namely d0) while Vt the tumor volume obtained through every measurement. The anti-tumor activity was evaluated by relative proliferation rate T/C (%), which was calculated in accordance with the following formula:
# wherein TRTV refers to the RTV of experimental groups; CRTV refers to the RTV of the negative control group.
# [7] = tested on: human esophageal cancer Ec109; assay type: in vivo, nude mice
# Source text: as §1
# [8] = tested on: human testicular cancer 5637; assay type: in vivo, nude mice
# Source text: as §1
# sarcoma HT-1080 = assay type: in vivo, nude mice
# Source text: as §1
# [9] = assay type: in vivo, nude mice
# Source text: as §1
# [10] = tested on: human gastric cancer MGC-803
# Source text: Keeping measuring the diameter of the transplanted tumor with a vernier caliper, and randomly dividing the mice into groups when the volume of the tumor reached 100-200 mm^3. Observing the dynamic effect of integrin-blocking polypeptides on inhibiting the growth of the tumor by means of documenting the change of tumor diameters. Measuring the tumor diameter once every other day and recording the body weight of mice simultaneously. Intravenously injecting polypeptides to mice from test groups while administering equal quantity of physiological saline to mice from the negative control group. The total medication period was 14 days. Avastin was adopted to set up a positive control group; it was administered through the tail vein once every three days while all other drugs were administered through the tail vein once a day. Leaving mice for a one-week rest after 14 days' medication, then (21 days after medication) killing the mice, surgically dissecting the tumors and measuring the weight of tumors. The tumor volume (TV) was calculated in accordance with the following formula: TV=½×a×b^2
# [11] = tested on: human prostate cancer DU-145; assay type: in vivo, nude mice
# Experimental: as §2
# [12] = tested on: human ovarian cancer SK-OV-3; assay type: in vivo, nude mice
# [13] = tested on: human pancreatic cancer SW-1990; test: heterotransplanted human pancreatic cancer SW-1990 in nude mice; assay type: in vivo
# Source text: as §1
# human colon cancer HT-29 = assay type: in vivo, nude mice
# Experimental: as §2
# human brain tumor SF763 = tested on: human brain tumor SF763
# Experimental: as §3
# (§4) Taxol used in the positive control group was administered once every 3 days through tail vein injection, while drugs of all other groups were administered on daily basis through tail vein injection.
# [14] = tested on: human liver cancer SMMC-7721
# Experimental: as §3, §4
# human lung cancer H460 = tested on: human lung cancer H460
# Experimental: as §3, §4
# [15] = tested on: human bladder cancer HT1376; test: heterotransplanted human bladder cancer HT1376 in nude mice; assay type: in vivo
# Source text: as §1
# [16] = tested on: human endometrial cancer HHUA
# Experimental: as §3, §4
sequence,measurement,setting,value
RGDGGGGFQPVLHLVALNSPLSGGMRGIRGADFQCFQQARAVGLAGTFRA [polypeptide II],"body weight of animals, in words",human renal cancer A498,no significant change in body weight
same,"toxic and side effects, in words",human renal cancer A498,no obvious toxic and side effects
same,"body weight of animals, in words",[1],no significant change in body weight
same,"toxic and side effects, in words",[1],no obvious toxic and side effects
same,"body weight of animals, in words",[2],no significant change in body weight
same,"toxic and side effects, in words",[2],no obvious toxic and side effects
same,"body weight of animals, in words",[3],no significant change in body weight
same,"toxic and side effects, in words",[3],no obvious toxic and side effects
same,final weight,[3]; 0.75 mg/kg,22.85 ± 0.61 g
same,final weight,[3]; 1.5 mg/kg,23.10 ± 0.61 g
same,final weight,[3]; 3 mg/kg,22.99 ± 0.37 g
same,"body weight of animals, in words",melanoma B16F10,no significant change in body weight
same,"toxic and side effects, in words",melanoma B16F10,no obvious toxic and side effects
same,"body weight of animals, in words",[4],no significant change in body weight
same,"toxic and side effects, in words",[4],no obvious toxic and side effects
same,"body weight of animals, in words",[5],no significant change in body weight
same,"toxic and side effects, in words",[5],no obvious toxic and side effects
same,final weight,[5]; 0.75 mg/kg,22.88 ± 0.70 g
same,final weight,[5]; 1.5 mg/kg,22.98 ± 0.60 g
same,final weight,[5]; 3 mg/kg,22.66 ± 0.61 g
same,"body weight of animals, in words",[6],no significant change in body weight
same,"toxic and side effects, in words",[6],no obvious toxic and side effects
same,"body weight of animals, in words",[7],no significant change in body weight
same,"toxic and side effects, in words",[7],no obvious toxic and side effects
same,"toxic and side effects, in words",[8],no obvious toxic and side effects
same,"body weight of animals, in words",sarcoma HT-1080,no significant change in body weight
same,"toxic and side effects, in words",sarcoma HT-1080,no obvious toxic and side effects
same,final weight,sarcoma HT-1080; 0.75 mg/kg,22.93 ± 0.46 g
same,final weight,sarcoma HT-1080; 1.5 mg/kg,22.95 ± 0.46 g
same,final weight,sarcoma HT-1080; 3 mg/kg,23.04 ± 0.55 g
same,"body weight of animals, in words",[9],no significant change in body weight
same,"body weight of animals, in words",[10],no significant change in body weight
same,"toxic and side effects, in words",[10],no obvious toxic and side effects
same,"body weight of animals, in words",[11],no significant change in body weight
same,"toxic and side effects, in words",[11],no obvious toxic and side effects
same,"body weight of animals, in words",[12],no significant change in body weight
same,"toxic and side effects, in words",[12],no obvious toxic and side effects
same,final weight,[12]; 0.75 mg/kg,23.07 ± 0.50 g
same,final weight,[12]; 1.5 mg/kg,23.32 ± 0.50 g
same,final weight,[12]; 3 mg/kg,22.97 ± 0.65 g
same,"body weight of animals, in words",[13],no significant change in body weight
same,"toxic and side effects, in words",[13],no obvious toxic and side effects
same,"body weight of animals, in words",human colon cancer HT-29,no significant change in body weight
same,"toxic and side effects, in words",human colon cancer HT-29,no obvious toxic and side effects
same,"body weight of animals, in words",human brain tumor SF763,no significant change in body weight
same,"toxic and side effects, in words",human brain tumor SF763,no obvious toxic and side effects
same,final weight,human brain tumor SF763; 0.75 mg/kg,22.95 ± 0.52 g
same,final weight,human brain tumor SF763; 1.5 mg/kg,22.88 ± 0.52 g
same,final weight,human brain tumor SF763; 3 mg/kg,23.24 ± 0.66 g
same,"body weight of animals, in words",[14],no significant change in body weight
same,"toxic and side effects, in words",[14],no obvious toxic and side effects
same,"body weight of animals, in words",human lung cancer H460,no significant change in body weight
same,"toxic and side effects, in words",human lung cancer H460,no obvious toxic and side effects
same,"body weight of animals, in words",[15],no significant change in body weight
same,"toxic and side effects, in words",[15],no obvious toxic and side effects
same,"body weight of animals, in words",[16],no significant change in body weight
same,"toxic and side effects, in words",[16],no obvious toxic and side effects
